In patent publication US20260345649A1, “PHARMACEUTICAL COMPOSITION FOR DESTRUCTION OF TUMOR BLOOD VESSELS” (SAMSUNG MEDICAL FOUNDATION, priority 2022, published 2026):

Legend:
[1] = test system: human gastric cancer cells; assay: Human gastric cancer cell xenograft in nude mice, bevacizumab local injection; assay type: in vivo, nude mice (Crj: BALB/c-nu/nu), human tumor cells; settings: 1 mg bevacizumab, three times at one-week intervals
Method: The animals used in the experiment were three male nude mice (Crj: BALB/c-nu/nu, male), each weighing approximately 30 g and five weeks old, produced by Orient. The mice underwent a one-week acclimatization period in the laboratory before use. Human gastric cancer cells (5×10^6 cells/100 μL in PBS) were xenografted into the subcutaneous fat layer on the dorsal side of each nude mouse. The tumor size was measured periodically, and drug administration was initiated when the tumor reached a diameter of 1 cm.
The experimental animals were administered 1 mg of bevacizumab by injecting 0.2 cc adjacent to the tumor three times at one-week intervals.

[2] = test system: advanced gastric cancer; settings: combined with fluoropyrimidine-cisplatin therapy; cited from earlier work
[3] = test system: platelets; settings: L-NMMA alone, physiological conditions; cited from earlier work
[4] = test system: blood pressure; settings: administered into blood vessels; cited from earlier work
[5] = test system: HUVEC; assay: HUVEC cytotoxicity according to L-NMMA concentration (MTS); assay type: cell-based, human; settings: L-NMMA alone, FIG. 19
Method: The cells were then incubated for an additional 24 hours in DMEM medium containing various L-NMMA concentrations. Following incubation, the cells were washed twice with PBS, and 100 μL of fresh DMEM growth medium was added. The cells were then further incubated for 48 hours.

[6] = test system: HUVEC; assay: 5-FU cytotoxicity on HUVEC according to D-glucose or L-glucose concentration (MTS); assay type: cell-based, human
Method: An MTS cell proliferation assay was conducted to evaluate the cytotoxic effect of 5-FU on HUVEC according to D-glucose concentration under different pH conditions.
The cells were then incubated for an additional 24 hours in DMEM medium containing various concentrations of glucose.
To assess the cytotoxic effect of L-glucose on HUVEC, the experiment was conducted in the same manner as described in Example 2, Section 3.
To assess the cytotoxic effect of D-glucose or L-glucose on HUVEC, the experiment was conducted in the same manner as described in Example 2, Section 3.

[7] = test system: hexokinase; settings: role: substrate; first enzyme in glycolysis; cited from earlier work
[8] = test system: human body; settings: in vivo; cited from earlier work
[9] = test system: HUVEC; assay: Intracellular ROS generation in HUVEC (DCF-DA staining); assay type: cell-based, human
Method: The effect of D-glucose on intracellular reactive oxygen species (ROS) generation in HUVEC was measured using the DCF-DA staining method. HUVEC cells (25,000 per well) were cultured in a 96-well microplate with a dark, clear bottom. After 24 hours of incubation, the cells were treated with D-glucose at concentrations of 10 mM, 25 mM, 50 mM, 100 mM, 125 mM, 150 mM, 200 mM, and 250 mM. Following drug treatment, the culture medium was removed, and the cells were washed with 100 μL/well of Hanks' Balanced Salt Solution (HBSS) buffer. After washing, 100 μL/well of diluted DCFDA was added, and the […]. The cells were then incubated in diluted DCFDA solution for 45 minutes at 37 °C in the dark. Following incubation, the DCFDA solution was removed, and 100 μL of HBSS buffer was added. Fluorescence was immediately measured using a fluorescence plate reader at Ex/Em=485/535 nm.
The effect of L-glucose on intracellular ROS generation was measured using the same method as for D-glucose.

[10] = D-glucose, L-glucose and mixtures with 5-FU, FIG. 15

## bevacizumab: recombinant humanized monoclonal antibody designed to inhibit vascular endothelial growth factor (VEGF)
[1]
  tumor size for the following two months: did not change
  tumor size in the third month: began to increase
[1]; P>0.05, FIG. 20
  tumor size four weeks after drug administration compared to before injection: remained nearly unchanged
[2]
  progression-free survival and overall response rate: improves progression-free survival and overall response rate

## CN=C(N)NCCC[C@H](N)C(=O)O [L-NMMA, N^G-Methyl-L-arginine]
[3]
  platelet activation in vivo: does not activate platelets in vivo
[4]
  blood pressure: effectively increases blood pressure
[5]
  cell viability: significantly reduced cell viability

## O=C[C@@H](O)[C@H](O)[C@@H](O)[C@@H](O)CO [L-glucose]
[6]; [10]
  cell viability: significantly reduced cell viability
[6]; FIG. 15
  cell viability, comparison among D-glucose, L-glucose and mixtures: more pronounced reduction in cell viability
[6]; L-glucose at both 5 mM and 25 mM, FIG. 14
  cell viability: significantly reduced cell viability
[7]
  phosphorylation by hexokinase: not phosphorylated by hexokinase
[8]
  toxicity to the human body: non-toxic to the human body
[9]; L-glucose, FIG. 11B
  ROS generation with increasing concentration: decreased

## O=C[C@H](O)[C@@H](O)[C@H](O)[C@H](O)CO [D-glucose]
[6]; D-glucose at both 5 mM and 25 mM, FIG. 13
  cell viability: significantly reduced cell viability
[6]; [10]
  cell viability: significantly reduced cell viability
[9]; D-glucose 10 mM to 250 mM, FIG. 11A
  ROS generation with increasing concentration: increased
